Target: Disintegrin and metalloproteinase domain-containing protein 17 (Homo sapiens, UniProt P78536)
Assay: Inhibition of TACE in human whole blood assessed as reduction of LPS-induced TNFalpha production pretreated 15 mins before LPS challenge measured 5 hrs post LPS challenge

Disintegrin and metalloproteinase domain-containing protein 17, sequence (P78536 whole entry, the tested form may be a part): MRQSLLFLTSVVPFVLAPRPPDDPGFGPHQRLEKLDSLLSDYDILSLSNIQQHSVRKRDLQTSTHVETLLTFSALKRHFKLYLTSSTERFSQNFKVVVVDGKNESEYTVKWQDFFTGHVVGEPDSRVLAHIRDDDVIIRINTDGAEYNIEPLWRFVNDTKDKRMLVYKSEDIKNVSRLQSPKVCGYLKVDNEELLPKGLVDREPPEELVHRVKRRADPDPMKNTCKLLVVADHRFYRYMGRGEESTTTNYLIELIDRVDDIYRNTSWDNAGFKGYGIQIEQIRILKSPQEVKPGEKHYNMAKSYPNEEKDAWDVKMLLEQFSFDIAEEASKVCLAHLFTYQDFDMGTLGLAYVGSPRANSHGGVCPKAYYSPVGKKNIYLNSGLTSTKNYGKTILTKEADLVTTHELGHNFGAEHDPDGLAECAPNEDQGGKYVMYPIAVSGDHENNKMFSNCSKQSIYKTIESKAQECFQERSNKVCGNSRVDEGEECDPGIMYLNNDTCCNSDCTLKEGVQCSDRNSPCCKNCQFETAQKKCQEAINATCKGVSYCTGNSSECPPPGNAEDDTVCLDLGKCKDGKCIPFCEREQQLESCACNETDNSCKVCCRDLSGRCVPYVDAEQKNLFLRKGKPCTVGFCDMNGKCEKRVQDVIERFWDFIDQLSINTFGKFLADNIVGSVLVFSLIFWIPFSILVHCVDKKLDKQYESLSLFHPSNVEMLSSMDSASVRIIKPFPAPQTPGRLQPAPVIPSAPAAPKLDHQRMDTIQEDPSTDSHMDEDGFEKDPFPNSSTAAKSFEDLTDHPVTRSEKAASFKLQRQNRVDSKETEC

| IC50 [nM] | SMILES |
| --- | --- |
| 126 | Cc1nc2ccccc2n1Cc1ccc(C(=O)N[C@@H]2CCCC[C@@H]2C(=O)NO)cn1 |
| 280 | O=C(N[C@@H]1CCCC[C@@H]1C(=O)NO)c1ccc(Cn2c(C(F)(F)F)nc3ccccc32)nc1 |
| 70 | Cc1nc2ccccc2n1Cc1ccc(C(=O)N[C@@H]2CCC[C@@H]2C(=O)NO)cn1 (single isomer, unassigned) |
| 160 | O=C(N[C@@H]1CCOC[C@@H]1C(=O)NO)c1ccc(Cn2c(C(F)(F)F)nc3ccccc32)nc1 |
| 74 | O=C(N[C@@H]1CCC[C@@H]1C(=O)NO)c1ccc(Cn2c(C(F)(F)F)nc3ccccc32)nc1 (single isomer, unassigned) |
| 80 | Cc1nc2ccccc2n1Cc1ccc(C(=O)N[C@@H]2CCOC[C@@H]2C(=O)NO)cn1 |

From ChEMBL document CHEMBL1833800, “Synthesis, preliminary biological evaluation and molecular modeling of some new heterocyclic inhibitors of TACE” (Eur J Med Chem, 2011)
